Columns and labels:
[1] = molecular target: T1, BTK (Mus musculus, UniProt P35991); experiment: Molecular probe assay, BTK occupancy in MDSCs of tumor bearing PDA mice; type: in vivo; details: 15 mg/kg BID, Day 8, 4 hours post dose
T1 construct: endogenous in cells; host or cells: granulocytic and monocytic MDSCs from tumor-bearing PDA mice
Excerpt: A molecular probe assay was used to calculate the percent irreversible occupancy of total BTK.

[2] = tested on: B cell receptor; experiment: Whole blood B cell receptor signalling, CD69 on CD19+ B cells; type: cell-based; details: 2 h incubation, anti-human IgD 18 h
Procedure: Blood from four healthy donors was incubated for 2 hours with the compounds shown over a concentration range, and then stimulated with anti-human IgD [10 μg/mL] for 18 hours. The mean fluorescent intensity (MFI) of CD69 (and CD86, data not shown) on gated CD19+ B cells was measured by flow cytometry. MFI values were normalized so that 100% represents CD69 level in stimulated cells without inhibitor, while 0% represents the unstimulated/no drug condition. […]

[3] = tested on: CD8+ T cells; experiment: Cytotoxic T cell (CTL) assay; type: cell-based; details: 500 nM
Procedure: CD8^+ T cells have at least two primary effector functions: (1) produce large amounts of IFN-γ (which activates macrophages), and (2) cytolytic activity. […] The targets were B lymphoblasts from lipopolysaccharide (LPS) treated cultures. The assay was performed by incubating different ratios of effectors:targets for 4 hours.

[4] = tested on: NK cells; experiment: Whole blood NK cell degranulation/ADCC assay, MEC-1 cells opsonised with obinutuzumab; type: cell-based, human; details: 1 h pretreatment, obinutuzumab 1 μg/mL, 4 h
Procedure: Degranulation in whole blood was performed as follows. […] Exponentially growing cells were used. […] A white blood cell (WBC) count of whole blood was performed. […] 170 μL aliquots of unmanipulated whole blood were incubated with 10 μL BTK inhibitors or X-VIVO 15 medium for one hour into a plate. […] The samples were placed in a 5% CO2 incubator for 4 hours at 37° C.
After 4 hours, the samples were mixed gently and 50 μL aliquots were removed from each well and placed in fluorescence-activated cell sorting (FACS) test tubes. A 20 μL aliquot of anti-CD56-APC antibody and anti-CD107a-PE antibody was added. The samples were incubated for 20 minutes at room temperature in the dark. An aliquot of 2 mL of FACS lysing solution (BD Biosceinces) was added. The samples were again incubated for 5 minutes, and then centrifuged at 2000 rpm for 5 minutes. Supernatant was discarded and the cell pellet was resuspended in 500 μL of PBS. The samples were analyzed on the flow cytometer for CD107a^+ NK cells (CD56+).

[5] = Cardiovascular function study in telemeterized beagle dogs; type: in vivo; details: single doses through 30 mg/kg
Excerpt: (§1) Formula (II) was well tolerated in standard in vivo Good Laboratory Practices (GLP) studies of pharmacologic safety.

[6] = GLP safety pharmacology in rats (functional observation battery, respiratory function); type: in vivo; details: doses through 300 mg/kg
Excerpt: as §1

[7] = Glutathione binding and depletion in vitro; type: in vitro ADME
Excerpt: (§2) No unique human metabolite was identified. Preliminary evaluations of metabolism in the plasma, bile, and urine of rats, dogs, and monkeys indicated metabolic processes of oxidation, glutathione binding, and hydrolysis.

[8] = molecular target: CYP3A4 (Homo sapiens, UniProt P08684); experiment: Loss of parent drug as catalyzed by CYPs; type: in vitro ADME
CYP3A4, sequence (P08684 whole entry): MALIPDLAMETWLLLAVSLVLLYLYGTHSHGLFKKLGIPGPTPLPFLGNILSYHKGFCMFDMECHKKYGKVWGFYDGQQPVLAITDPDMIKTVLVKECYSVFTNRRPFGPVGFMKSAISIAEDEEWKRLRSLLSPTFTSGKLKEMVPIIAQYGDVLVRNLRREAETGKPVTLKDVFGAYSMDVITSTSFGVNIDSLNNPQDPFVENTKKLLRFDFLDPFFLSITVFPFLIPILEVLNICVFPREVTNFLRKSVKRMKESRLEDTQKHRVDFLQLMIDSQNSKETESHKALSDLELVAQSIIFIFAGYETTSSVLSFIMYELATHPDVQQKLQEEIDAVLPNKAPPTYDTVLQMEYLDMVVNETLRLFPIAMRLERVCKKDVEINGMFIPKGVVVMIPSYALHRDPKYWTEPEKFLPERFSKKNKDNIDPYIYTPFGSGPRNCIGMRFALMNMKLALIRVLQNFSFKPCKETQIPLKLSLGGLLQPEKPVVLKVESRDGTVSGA
Excerpt: as §2

[9] = tested on: GPVI platelet aggregation; experiment: GPVI platelet aggregation (convulxin-induced); type: cell-based, human
Procedure: GPVI platelet aggregation was measured for Formula (II) and Formula (X) (ibrutinib). Blood was obtained from untreated humans, and platelets were purified from […] by centrifugation. Cells were resuspended to a final concentration of […] in buffer containing 145 mmol/L NaCl, 10 mmol/L HEPES, 0.5 mmol/L Na2HPO4, 5 mmol/L KCl, 2 mmol/L MgCl2, 1 mmol/L CaCl2, and 0.1% glucose, at pH 7.4. Stock solutions of Convulxin (CVX) GPVI were prepared on the day of experimentation and added to platelet suspensions 5 minutes (37° C., 1200 rpm) before the induction of aggregation. Aggregation was assessed with a Chronolog Lumi-Aggregometer (model 540 VS; Chronolog, Havertown, Pa.) and permitted to proceed for 6 minutes after the addition of agonist. The results are reported as maximum percent change in light transmittance from baseline with platelet buffer used as a reference.
In FIG. 23, the results of CVX-induced (250 ng/mL) human platelet aggregation results before and 15 minutes after administration of the BTK inhibitors to 6 healthy individuals are shown.

[10] = tested on: primary CLL cells; experiment: Rituximab ADCC chromium release assay; type: cell-based, human; details: 1 μM; primary CLL samples
Procedure: Cell culture conditions were as follows. Cell lines Raji and DHL-4 were maintained in […] supplemented with fetal bovine serum, L-glutamine, 2-mercaptoethanol and penicillin-streptomycin at 37° C. in a humidified incubator. The HER18 cells were maintained in DEM supplemented with fetal bovine serum, penicillin-streptomycin and. Prior to assay, HER18 cells were harvested using trypsin-EDTA, washed with phosphate-buffered saline (PBS) containing 5% serum and viable cells were counted. For culture of primary target cells, peripheral blood from CLL patients was subject to density centrifugation to obtain peripheral blood mononuclear cells (PBMC). Cell preparations were washed and then subject to positive selection of CD5+CD19^+ CLL cells using magnetic beads (MACS, Miltenyi Biotech). Cell preparations were used fresh after selection. NK cells from CLL patients and healthy volunteers were enriched from peripheral blood collected in sodium citrate anti-coagulant tubes and then subject to density centrifugation. Removal of non NK cells was performed using negative selection by MACS separation. […]
ADCC assays were performed as follows. […] The effect of NK cell natural cytotoxicity was assessed in wells containing no rituximab. […] Supernatants were harvested and ^51Cr release was measured by liquid scintillation counting. […]

[11] = tested on: ID8 ovarian cancer; experiment: ID8 syngeneic orthotropic ovarian cancer murine model; type: in vivo, mice; details: 15 mg/kg/BID oral
Excerpt: Human ovarian cancer models, including the ID8 syngeneic orthotropic ovarian cancer model and other animal models, are described in Fong and Kakar, J. Ovarian Res. 2009, 2, 12; Greenaway, et al., Gynecol. Oncol. 2008, 108, 385-94; Urzua et al., Tumour Biol. 2005, 26, 236-44; Janat-Amsbury, et al., Anticancer Res. 2006, 26, 3223-28; Janat-Amsbury, et al., Anticancer Res. 2006, 26, 2785-89. […] The results of the study are shown in FIG. 5, FIG. 6, FIG. 7, FIG. 8, FIG. 9, FIG. 10, FIG. 11, and FIG. 12.

[12] = tested on: BCR activation markers CD69 and CD86; experiment: In vivo potency, CD69 and CD86 expression after IgM stimulation; set-up: species or system mice; details: oral gavage, 3 h post-dose
Excerpt: CD86 and CD69 are cell surface proteins that are BCR activation markers. […] BCR was stimulated with IgM and the expression of activation marker CD69 and CD86 are monitored by flow cytometry and to determine EC50 values.

T1 sequence (P35991 whole entry): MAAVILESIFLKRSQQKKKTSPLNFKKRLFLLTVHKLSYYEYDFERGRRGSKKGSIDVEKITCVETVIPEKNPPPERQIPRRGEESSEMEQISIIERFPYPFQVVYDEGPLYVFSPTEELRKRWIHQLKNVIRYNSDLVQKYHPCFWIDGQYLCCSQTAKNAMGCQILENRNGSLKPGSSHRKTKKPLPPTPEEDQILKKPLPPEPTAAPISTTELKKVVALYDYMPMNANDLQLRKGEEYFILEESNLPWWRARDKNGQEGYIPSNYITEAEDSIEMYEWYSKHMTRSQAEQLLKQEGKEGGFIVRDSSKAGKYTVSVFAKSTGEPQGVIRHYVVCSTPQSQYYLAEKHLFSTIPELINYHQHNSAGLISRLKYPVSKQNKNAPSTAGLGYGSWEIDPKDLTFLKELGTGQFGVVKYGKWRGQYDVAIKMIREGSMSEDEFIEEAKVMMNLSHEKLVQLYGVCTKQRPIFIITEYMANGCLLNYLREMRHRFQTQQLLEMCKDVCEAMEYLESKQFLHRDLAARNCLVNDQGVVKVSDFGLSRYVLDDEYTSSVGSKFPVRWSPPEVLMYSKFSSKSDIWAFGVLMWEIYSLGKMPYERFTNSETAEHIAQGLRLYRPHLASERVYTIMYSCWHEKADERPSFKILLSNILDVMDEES

Structure (SMILES): CC#CC(=O)N1CCC[C@H]1c1nc(-c2ccc(C(=O)Nc3ccccn3)cc2)c2c(N)nccn12 [Formula (II), (S)-4-(8-amino-3-(1-(but-2-ynoyl)pyrrolidin-2-yl)imidazo[1,5-a]pyrazin-1-yl)-N-(pyridin-2-yl)benzamide]
- irreversible BTK occupancy in granulocytic and monocytic MDSC [1]: Complete BTK occupancy
- EC50 [2]: 8.2 nM
- CD8+ T cell function as % cytotoxicity [3]: no effect on CD8^+ T cell function
- reduction of obinutuzumab-stimulated NK cell degranulation [4]: minimal effect
- body temperature, cardiovascular, ECG (including QT interval) parameters [5]: no meaningful changes
- functional observation battery: neurobehavioral effects, body temperature [6]: no adverse effects
- respiratory function [6]: no treatment-related adverse effects
- glutathione binding and depletion [7]: binds to glutathione but does not deplete glutathione
- CYP metabolism [8]: metabolized by CYP3A4
- GPVI platelet aggregation ([9]; FIG. 22 and FIG. 23): does not
- IC50 ([9]; Homo sapiens, Platelet, FIG. 22): 1150 nM
- ex vivo NK cell activity against autologous tumor cells [10]: not inhibited
- ID8 ovarian cancer growth [11]: impairs ID8 ovarian cancer growth
- immunosuppressive B cells in tumor-bearing mice [11]: significant reduction in immunosuppressive B cells
- tumor associated Tregs and CD8+ T cells [11]: significant reduction in immunosuppressive tumor associated Tregs and an increase in CD8^+ T cells
- in vivo potency, inhibition of activation markers [12]: more potent at inhibiting expression of activation makers than ibrutinib

Reference: patent publication US20180369244A1, “BTK Inhibitors to Treat Solid Tumors Through Modulation of the Tumor Microenvironment” (Acerta Pharma B.V., priority 2014, published 2018)
